Results from US20250250542A1, “CULTURE METHOD” (Quell Therapeutics Limited, priority 2023, published 2025).

What was measured:
[1] = system: bulk Tregs from patient donor material; test: % of FOXP3+ cells in the expansion product from patient donor material; assay type: cell-based, human; details: 100 nM rapamycin
From the text: Leukopaks were supplied by BioIVT.
Leukopaks were used to derive Treg populations. […] Where indicated, CD4+CD25+CD127−/low (Bulk Tregs) were used.

[2] = system: Tregs from patient material; test: Transduction efficiency of expansion product (% Dextramer+/QBEND+)
Description: A lentiviral vector was used to transduce the cells. The vector encodes an RQR8 safety switch, a FOXP3 polypeptide and an HLA-A2-specific CAR.
The Tregs were rested in Treg culture media (X-VIVO 15 media (Lonza) supplemented with 5% Human AB serum (heat-inactivated; Merck)) containing 100 nM of rapamycin for 1 hour before activation. The Tregs were then activated by adding CD3 and CD28 beads and cultured for 24 or 48 hours (1+24 and 1+48 conditions respectively). At 24 or 48 hours, the cells were washed with fresh Treg culture media and centrifuged. The supernatant was removed and the cell pellet was resuspended in fresh Treg culture media. The expansion was then continued in the fresh Treg culture media (X-VIVO 15 media (Lonza) supplemented with 5% Human AB serum (heat-inactivated; Merck)) further containing IL-2 (Proleukin, Clinigen Healthcare) and lentiviral supernatant but no rapamycin. Cells were re-fed every 2 to 3 days with Treg culture media supplemented with IL-2. Cells were harvested by removing the CD3 and CD28 beads 14 days after activation.

CO[C@H]1C[C@@H]2CC[C@@H](C)[C@@](O)(O2)C(=O)C(=O)N2CCCC[C@H]2C(=O)O[C@H]([C@H](C)C[C@@H]2CC[C@@H](O)[C@H](OC)C2)CC(=O)[C@H](C)/C=C(\C)[C@@H](O)[C@@H](OC)C(=O)[C@H](C)C[C@H](C)/C=C/C=C/C=C/1C [rapamycin]
% CD4+CD25+FOXP3+ cells ([1]; donor LTX-008, 1 + 24 h, day 14 (control 80.8)): 91.2% | % CD4+CD25+FOXP3+ cells ([1]; donor LTX-008, 1 + 48 h, day 14 (control 80.8)): 91.4% | % CD4+CD25+FOXP3+ cells ([1]; donor LTX-0011, 1 + 48 h, day 14 (control 57.3)): 92.6% | % CD4+CD25+FOXP3+ cells ([1]; donor LTX-0012, 1 + 48 h, day 14 (control 92.8)): 98.2% | % CD4+CD25+FOXP3+ cells ([1]; donor LTX-0013, 1 + 48 h, day 14 (control 41.0)): 89.9% | % Dextramer+/QBEND+ ([2]; donor LTX-008, 1 + 24 (control 36)): 30% | % Dextramer+/QBEND+ ([2]; donor LTX-008, 1 + 48 (control 36)): 37.8% | % Dextramer+/QBEND+ ([2]; donor LTX-0011, 1 + 48 (control 20.5)): 30.8% | % Dextramer+/QBEND+ ([2]; donor LTX-0012, 1 + 48 (control 10)): 11%
